Earlier results on 1 compound are cited in PMC11431137, “[^68Ga]Ga-DOTAGA-Glu(FAPi)2 Shows Enhanced Tumor Uptake and Theranostic Potential in Preclinical PET Imaging” (Diagnostics, 2024).

Data set [1] relates to FAP over PREP and DPP. The arrangement: method as in PMID 38999044. The conditions noted are these: compared with DOTAGA.(SA.FAPi)2; cited from earlier work.
The subject of data set [2] is FAP. The arrangement: method as in PMID 36980775. The conditions noted are these: cited from earlier work.

Turning to `N#C[C@@H]1CC(F)(F)CN1C(=O)CNC(=O)c1ccnc2ccc(OCCCCNC(=O)CC[C@H](NC(=O)CCC(C(=O)O)N3CCN(CC(=O)O)CCN(CC(=O)O)CCN(CC(=O)O)CC3)C(=O)NCCCCOc3ccc4nccc(C(=O)NCC(=O)N5CC(F)(F)C[C@H]5C#N)c4c3)cc12` (stereo partly drawn) [DOTAGA-Glu(FAPi)2, 2,2′,2″-(10-(4-(((S)-1,5-bis((4-((4-((2-((S)-2-Cyano-4,4-difluoropyrrolidin-1-yl)-2-oxoethyl)carbamoyl)quinolin-6-yl)oxy)butyl)amino)-1,5-dioxopentan-2-yl)amino)-1-carboxy-4-oxobutyl)-1,4,7,10-tetraazacyclododecane-1,4,7-triyl)triacetic acid], in data set [1], the “selectivity for FAP over PREP and DPP” value was “higher selectivity than DOTAGA.(SA.FAPi)2”. Besides, in data set [2], the IC50 was 260 ± 40 pM.
